Series [1] addresses T1, nicotinamidase (PncA) (Escherichia coli, UniProt P21369).
T1 construct: recombinant His6-tagged nicotinamidase
Description: activity of purified PncA after […] min incubation with […] inhibitor at […]°C; activity undetectable. In kind it is biochemical.

Series [2] has as its target T2, CobB (Escherichia coli, UniProt P75960).
T2 construct: recombinant CobB, MBP tag cleaved
T2 sequence (P75960 1-279): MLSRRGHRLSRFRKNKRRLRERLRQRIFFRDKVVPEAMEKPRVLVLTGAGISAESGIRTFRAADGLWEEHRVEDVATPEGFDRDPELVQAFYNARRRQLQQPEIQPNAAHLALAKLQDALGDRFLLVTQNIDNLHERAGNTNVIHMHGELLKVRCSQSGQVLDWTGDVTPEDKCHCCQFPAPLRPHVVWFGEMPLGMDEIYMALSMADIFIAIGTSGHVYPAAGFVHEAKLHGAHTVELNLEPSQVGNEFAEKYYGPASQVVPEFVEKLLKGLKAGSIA
The experiment in a line: deacetylation of acetylated Acs by purified CobB at varied NAM and NAD+; Dixon and double-reciprocal plots (Ki approximately […]). The class given is biochemical.

Substrate in series [3]: NC(=O)c1cccnc1
The experiment in a line: purified protein. In kind it is biochemical, Escherichia coli.

The results in this text go back to PMC5734772, “Characterization of CobB kinetics and inhibition by nicotinamide” (PLoS ONE, 2017).

With `N#Cc1cccnc1` [3-pyridinecarbonitrile], the “activity of purified PncA after 10 min incubation with 1 mM inhibitor at 37°C; a” value in series [1] was “This result confirms PncA inhibition by 3-pyridinecarbonitrile and 3-pyridinecarboxaldehide in vitro”.

Consider `O=Cc1cccnc1` [3-pyridinecarboxaldehide], for which the “activity of purified PncA after 10 min incubation with 1 mM inhibitor at 37°C; a” value in series [1] is “This result confirms PncA inhibition by 3-pyridinecarbonitrile and 3-pyridinecarboxaldehide in vitro”.

For `NC(=O)c1cccnc1` [nicotinamide], in series [2], the half-inhibitory concentration (IC50) was approximately 52 µM.

B1: nicotinamidase (PncA) (Escherichia coli K-12) (protein)
chain: MPPRALLLVDLQNDFCAGGALAVPEGDSTVDVANRLIDWCQSRGEAVIASQDWHPANHGSFASQHGVEPYTPGQLDGLPQTFWPDHCVQNSEGAQLHPLLHQKAIAAVFHKGENPLVDSYSAFFDNGRRQKTSLDDWLRDHEIDELIVMGLATDYCVKFTVLDALQLGYKVNVITDGCRGVNIQPQDSAHAFMEMSAAGATLYTLADWEETQG
notes: recombinant His6-tagged nicotinamidase
In the case of B1, the Michaelis constant (Km) in series [3] stood at 175 ± 27 µM.

For orientation: IC50 means the concentration at which inhibition is half-maximal. A low value points to inhibition by little substance. As a reminder, the Km is the concentration of substrate that gives half-maximal velocity.
